According to article PMC12141164, “Phase-1 study of vamotinib (PF-114), a 3rd generation BCR::ABL1 tyrosine kinase-inhibitor, in chronic myeloid leukaemia” (Annals of Hematology, 2025):
Values joined by “and” are separate entries in the source; they are usually repeats but may differ in a detail not shown here. Identical values can stand only once. Marks after values point to notes of the source that are not given here.

System: BCR::ABL1 positive CML
Assay: Phase-1 study: haematological, cytogenetic and molecular response
Assay type: in vivo, human
Conditions: for Best response achieved on PF-114: individual patients
Description: Haematological response evaluations were done on the first day of each cycle of therapy; molecular response on the first day of cycles 1, 2, 4, 7, 10, 13 and then every three months; cytogenetic response – at screening and on the first days of cycles 4, 7, 13 and every three months thereafter, provided that there was no major molecular response.
Cytogenetic response was assessed by differential staining of chromosomes and if uninformative, by fluorescent in situ hybridization (FISH). Mutations in BCR::ABL1 were assessed by Sanger and next generation sequencing (NGS). Sanger sequencing was done at each center; NGS analyses were done in the laboratory of Prof. Susan Branford, University of Adelaide. Discordances were resolved as described in Table S2. Molecular response was assessed using the ratio of BCR::ABL1 to ABL1 measured according to the IS [9].

[1] = Subjects after ponatinib (N = 5)

Cc1ccc(C(=O)Nc2ccc(CN3CCN(C)CC3)c(C(F)(F)F)c2)cc1C#Cc1nnc2ccccn12 [vamotinib]
Subjects with loss of MCyR (Cohort 5 500 mg N=3): 0 no. (%)
Subjects with loss of MMR (Cohort 5 500 mg N=3): 0 no. (%)
CCyR achieved at treatment (Cohort 6 600 mg N=6): 0 no. (%)
CCyR by 6 months (Cohort 6 600 mg N=6): 0 no. (%)
CCyR by 12 months (Cohort 6 600 mg N=6): 0 no. (%)
CHR achieved at treatment (Cohort 6 600 mg N=6): 2 (33) no. (%)
CHR by the 3 months (Cohort 6 600 mg N=6): 2 (33) no. (%)
CHR by the 6th months (Cohort 6 600 mg N=6): 2 (33) no. (%)
CHR by the 12th months (Cohort 6 600 mg N=6): 2 (33) no. (%)
MCyR achieved at treatment (Cohort 6 600 mg N=6): 0 no. (%)
MCyR by 6 months (Cohort 6 600 mg N=6): 0 no. (%)
MCyR by 12 months (Cohort 6 600 mg N=6): 0 no. (%)
MMR achieved at treatment (Cohort 6 600 mg N=6): 0 no. (%)
MMR by 6 months (Cohort 6 600 mg N=6): 0 no. (%)
MMR by 12 months (Cohort 6 600 mg N=6): 0 no. (%)
MMR by 24 months (Cohort 6 600 mg N=6): 0 no. (%)
Subjects with loss of CCyR (Cohort 6 600 mg N=6): 0 no. (%)
Subjects with loss of CHR (Cohort 6 600 mg N=6): 0 no. (%)
Subjects with loss of MCyR (Cohort 6 600 mg N=6): 0 no. (%)
Subjects with loss of MMR (Cohort 6 600 mg N=6): 0 no. (%)
CCyR achieved at treatment (Cohort 7 750 mg N=4): 0 no. (%)
CCyR by 6 months (Cohort 7 750 mg N=4): 0 no. (%)
CCyR by 12 months (Cohort 7 750 mg N=4): 0 no. (%)
CHR achieved at treatment (Cohort 7 750 mg N=4): 1 (25) no. (%)
CHR by the 3 months (Cohort 7 750 mg N=4): 1 (25) no. (%)
CHR by the 6th months (Cohort 7 750 mg N=4): 1 (25) no. (%)
CHR by the 12th months (Cohort 7 750 mg N=4): 1 (25) no. (%)
MCyR achieved at treatment (Cohort 7 750 mg N=4): 0 no. (%)
MCyR by 6 months (Cohort 7 750 mg N=4): 0 no. (%)
MCyR by 12 months (Cohort 7 750 mg N=4): 0 no. (%)
MMR achieved at treatment (Cohort 7 750 mg N=4): 0 no. (%)
MMR by 6 months (Cohort 7 750 mg N=4): 0 no. (%)
MMR by 12 months (Cohort 7 750 mg N=4): 0 no. (%)
MMR by 24 months (Cohort 7 750 mg N=4): 0 no. (%)
Subjects with loss of CCyR (Cohort 7 750 mg N=4): 0 no. (%)
Subjects with loss of CHR (Cohort 7 750 mg N=4): 0 no. (%)
Subjects with loss of MCyR (Cohort 7 750 mg N=4): 0 no. (%)
Subjects with loss of MMR (Cohort 7 750 mg N=4): 0 no. (%)
CCyR achieved at treatment (Cohort 8 300 mg N=9): 5 no. (%) and 5 (56) no. (%)
CCyR by 6 months (Cohort 8 300 mg N=9): 3 (33) no. (%)
CCyR by 12 months (Cohort 8 300 mg N=9): 4 (44) no. (%)
CHR achieved at treatment (Cohort 8 300 mg N=9): 4 (100) no. (%)
CHR by the 3 months (Cohort 8 300 mg N=9): 4 (100) no. (%)
CHR by the 6th months (Cohort 8 300 mg N=9): 4 (100) no. (%)
CHR by the 12th months (Cohort 8 300 mg N=9): 4 (100) no. (%)
MCyR achieved at treatment (Cohort 8 300 mg N=9): 6 no. (%) and 6 (86) no. (%)
MCyR by 6 months (Cohort 8 300 mg N=9): 4 (57) no. (%)
MMR achieved at treatment (Cohort 8 300 mg N=9): 4 no. (%) and 4 (44) no. (%)
MMR by 6 months (Cohort 8 300 mg N=9): 3 (33) no. (%)
MMR by 12 months (Cohort 8 300 mg N=9): 3 (33) no. (%)
MMR by 24 months (Cohort 8 300 mg N=9): 4 (44) no. (%)
Subjects with loss of CCyR (Cohort 8 300 mg N=9): 1 (20) no. (%)
Subjects with loss of CHR (Cohort 8 300 mg N=9): 2 (50) no. (%)
Subjects with loss of MCyR (Cohort 8 300 mg N=9): 1 (17) no. (%)
Subjects with loss of MMR (Cohort 8 300 mg N=9): 0 no. (%)
CCyR [1]: none and 0/5^*
MCyR [1]: none and 0/5
MMR [1]: 0/5^*
MMR (Subjects with BCR::ABL1^T315I (N = 16)): 0/16
CCyR achieved at treatment (Total N=51): 10 no. (%) and 10 (20) no. (%)
CCyR by 6 months (Total N=51): 6 (12) no. (%)
CCyR by 12 months (Total N=51): 7 (14) no. (%)
CHR achieved at treatment (Total N=51): 14 no. (%) and 14 (47) no. (%)
CHR by the 3 months (Total N=51): 11 (37) no. (%)
CHR by the 6th months (Total N=51): 11 (37) no. (%)
CHR by the 12th months (Total N=51): 14 (47) no. (%)
MCyR achieved at treatment (Total N=51): 14 no. (%) and 14 (32) no. (%)
MCyR by 6 months (Total N=51): 10 (23) no. (%)
MCyR by 12 months (Total N=51): 11 (25) no. (%)
MMR achieved at treatment (Total N=51): 7 no. (%) and 7 (14) no. (%)
MMR by 6 months (Total N=51): 4 (8) no. (%)
MMR by 12 months (Total N=51): 4 (8) no. (%)
MMR by 24 months (Total N=51): 7 (14) no. (%)
Subjects with loss of CCyR (Total N=51): 2 (20) no. (%)
Subjects with loss of CHR (Total N=51): 8 no. (%) and 8 (57) no. (%)
Subjects with loss of MCyR (Total N=51): 2 (14) no. (%)
subjects achieving deep molecular response MR4.5 (dose of 300 mg): One
Median time to achieving a CHR (in vivo): 3.8 months
median time to MMR (in vivo): 5,6 months
median time to achievement of CCyR (in vivo): 5.6 months
median time to achievement of MCyR (in vivo): 4.5 months
Best response achieved on PF-114 (dose cohort 50 mg): CHR
Best response achieved on PF-114 (dose cohort 100 mg, listed as PF-114): MCyR and MMR
Best response achieved on PF-114 (dose cohort 125 mg): MR 4.5
Best response achieved on PF-114 (dose cohort 200 mg, listed as PF-114): CHR and MCyR and CCyR and MR 4
Best response achieved on PF-114 (dose cohort 300 mg, listed as PF-114): MMR and CHR and MR 4 and CCyR and MR 4.5
Best response achieved on PF-114 (dose cohort 400 mg, listed as PF-114): CHR and CCyR and MCyR
Best response achieved on PF-114 (dose cohort 600 mg): CHR
Best response achieved on PF-114 (dose cohort 750 mg): CHR
time to CHR (one subject, myeloid variant M0 blast crisis, i(17) and BCR::ABL1^T315I): 5 weeks
duration of CCyR (subjects with BCR::ABL1^T315I): 2.8 months
duration of MCyR (subjects with BCR::ABL1^T315I): 2.8 months
